Experimental data taken from patent US9149038B2, “4-amino-6-(heterocyclic)picolinates and 6-amino-2-(heterocyclic)pyrimidine-4-carboxylates and their use as herbicides” (Dow AgroSciences LLC, priority 2013, dated 2015).
Where two headings read alike, the source gives them in different places.

Assays:
[1] = system: Key Grass and Sedge Weeds as well as Grass Crops; experiment: Post-Emergent Test II: postemergent herbicidal activity, visual rating after 14 d (Table 8); assay type: in vivo; conditions: post-emergence, 336 h; for pest or weed control at 35 g/ha: 35 g ai/ha; for pest or weed control at 70 g/ha: 70 g ai/ha; for pest or weed control at 140 g/ha: 140 g ai/ha
Method in brief: (§1)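 Track-sprayed young seedlings (first/second true leaf) at 187 L/ha across a 2-fold rate series from the high rate down to 1/16×. Kept in greenhouse at 23-29° C day, subirrigated. Injury rated by eye after 14 d, 0 = no injury, 100 = complete kill.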

[2] = system: Key Broadleaf Weed and Crop Species; experiment: Post-Emergent Test II: postemergent herbicidal activity, visual rating after 14 d (Table 7); assay type: in vivo; conditions: post-emergence, 336 h; for pest or weed control at 70 g/ha: 70 g ai/ha; for pest or weed control at 140 g/ha: 140 g ai/ha; for pest or weed control at 35 g/ha: 35 g ai/ha
Method in brief: as §1

[3] = barnyardgrass (Echinochloa crus-galli), read-out: Visual Growth Reduction (%) 14 Days After Application, ECHCG
[4] = giant foxtail (Setaria faberi), read-out: Visual Growth Reduction (%) 14 Days After Application, SETFA
[5] = maize, corn (Zea mays), read-out: Visual Growth Reduction (%) 14 Days After Application, ZEAMX
[6] = rice (Oryza sativa), read-out: Visual Growth Reduction (%) 14 Days After Application, ORYSA
[7] = wheat, spring (Triticum aestivum), read-out: Visual Growth Reduction (%) 14 Days After Application, TRZAS
[8] = yellow nutsedge (Cyperus esculentus), read-out: Visual Growth Reduction (%) 14 Days After Application, CYPES
[9] = ABUTH: velvetleaf (Abutilon theophrasti), read-out: Visual Growth Reduction (%) 14 Days After Application ABUTH
[10] = AMARE: redroot pigweed (Amaranthus retroflexus), read-out: Visual Growth Reduction (%) 14 Days After Application AMARE
[11] = BRSNN: oilseed rape, canola (Brassica napus), read-out: Visual Growth Reduction (%) 14 Days After Application BRSNN
[12] = CHEAL: lambsquarters (Chenopodium album), read-out: Visual Growth Reduction (%) 14 Days After Application CHEAL
[13] = EPHHL: wild poinsettia (Euphorbia heterophylla), read-out: Visual Growth Reduction (%) 14 Days After Application EPHHL
[14] = HELAN: sunflower (Helianthus annuus), read-out: Visual Growth Reduction (%) 14 Days After Application HELAN

Structure (SMILES)	pest or weed control at 70 g/ha [1, 3] [%]	pest or weed control at 140 g/ha [1, 3] [%]	pest or weed control at 70 g/ha [1, 4] [%]	pest or weed control at 140 g/ha [1, 4] [%]	pest or weed control at 70 g/ha [1, 6] [%]	pest or weed control at 140 g/ha [1, 6] [%]	pest or weed control at 70 g/ha [1, 7] [%]	pest or weed control at 140 g/ha [1, 7] [%]	pest or weed control at 70 g/ha [1, 8] [%]	pest or weed control at 140 g/ha [1, 8] [%]	pest or weed control at 70 g/ha [2, 9] [%]	pest or weed control at 140 g/ha [2, 9] [%]	pest or weed control at 70 g/ha [2, 10] [%]	pest or weed control at 140 g/ha [2, 10] [%]	pest or weed control at 70 g/ha [2, 11] [%]	pest or weed control at 140 g/ha [2, 11] [%]	pest or weed control at 70 g/ha [2, 12] [%]	pest or weed control at 140 g/ha [2, 12] [%]	pest or weed control at 70 g/ha [2, 13] [%]	pest or weed control at 140 g/ha [2, 13] [%]	other results
Nc1c(F)c(-c2ccc(Cl)c3c2OC(F)(F)O3)nc(C(=O)O)c1Cl [Compound 82]	0 to 29	0 to 29	0 to 29	0 to 29	30 to 44	30 to 44	60 to 74	75 to 84	30 to 44	45 to 59	60 to 74	75 to 84	95 to 100	95 to 100	95 to 100	95 to 100	95 to 100	95 to 100	0 to 29	0 to 29	pest or weed control at 35 g/ha ([1]; barnyardgrass (Echinochloa crus-galli), read-out: Visual Growth Reduction (%) 14 Days After Application ECHCG): 0 to 29%; pest or weed control at 35 g/ha ([1]; giant foxtail (Setaria faberi), read-out: Visual Growth Reduction (%) 14 Days After Application SETFA): 0 to 29%; pest or weed control at 35 g/ha ([1]; maize, corn (Zea mays), read-out: Visual Growth Reduction (%) 14 Days After Application ZEAMX): 45 to 59%; pest or weed control at 70 g/ha [1, 5]: 60 to 74%; pest or weed control at 140 g/ha [1, 5]: 60 to 74%; pest or weed control at 35 g/ha ([1]; rice (Oryza sativa), read-out: Visual Growth Reduction (%) 14 Days After Application ORYSA): 0 to 29%; pest or weed control at 35 g/ha ([1]; wheat, spring (Triticum aestivum), read-out: Visual Growth Reduction (%) 14 Days After Application TRZAS): 60 to 74%; pest or weed control at 35 g/ha ([1]; yellow nutsedge (Cyperus esculentus), read-out: Visual Growth Reduction (%) 14 Days After Application CYPES): 0 to 29%; pest or weed control at 70 g/ha [2, 14]: 85 to 94%; pest or weed control at 140 g/ha [2, 14]: 95 to 100%; pest or weed control at 35 g/ha ([2]; lambsquarters (Chenopodium album), read-out: Visual Growth Reduction (%) 14 Days After Application CHEAL): 95 to 100%; pest or weed control at 35 g/ha ([2]; oilseed rape, canola (Brassica napus), read-out: Visual Growth Reduction (%) 14 Days After Application BRSNN): 95 to 100%; pest or weed control at 35 g/ha ([2]; redroot pigweed (Amaranthus retroflexus), read-out: Visual Growth Reduction (%) 14 Days After Application AMARE): 95 to 100%; pest or weed control at 35 g/ha ([2]; sunflower (Helianthus annuus), read-out: Visual Growth Reduction (%) 14 Days After Application HELAN): 85 to 94%; pest or weed control at 35 g/ha ([2]; velvetleaf (Abutilon theophrasti), read-out: Visual Growth Reduction (%) 14 Days After Application ABUTH): 30 to 44%; pest or weed control at 35 g/ha ([2]; wild poinsettia (Euphorbia heterophylla), read-out: Visual Growth Reduction (%) 14 Days After Application EPHHL): 0 to 29%
COC(=O)c1nc(-c2ccc(F)c3c2OCO3)c(F)c(N)c1Cl [Compound 83]	0 to 29	0 to 29	0 to 29	0 to 29	0 to 29	0 to 29	0 to 29	0 to 29	0 to 29	0 to 29	85 to 94	95 to 100	95 to 100	95 to 100	95 to 100	95 to 100	95 to 100	95 to 100	0 to 29	0 to 29	pest or weed control at 35 g/ha [1, 3]: 0 to 29%; pest or weed control at 35 g/ha [1, 4]: 0 to 29%; pest or weed control at 35 g/ha [1, 5]: 0 to 29%; pest or weed control at 70 g/ha [1, 5]: 0 to 29%; pest or weed control at 140 g/ha [1, 5]: 0 to 29%; pest or weed control at 35 g/ha [1, 6]: 0 to 29%; pest or weed control at 35 g/ha [1, 7]: 0 to 29%; pest or weed control at 35 g/ha [1, 8]: 0 to 29%; pest or weed control at 35 g/ha [2, 9]: 85 to 94%; pest or weed control at 35 g/ha [2, 10]: 95 to 100%; pest or weed control at 35 g/ha [2, 11]: 30 to 44%; pest or weed control at 35 g/ha [2, 12]: 95 to 100%; pest or weed control at 35 g/ha [2, 13]: 0 to 29%; pest or weed control at 35 g/ha [2, 14]: 85 to 94%; pest or weed control at 70 g/ha [2, 14]: 95 to 100%; pest or weed control at 140 g/ha [2, 14]: 95 to 100%
COC(=O)c1nc(-c2cccc3c2OC(F)(F)O3)cc(N)c1Cl [Compound 84]	0 to 29	0 to 29	0 to 29	0 to 29	0 to 29	0 to 29	0 to 29	0 to 29	0 to 29	0 to 29	60 to 74	75 to 84	95 to 100	95 to 100	75 to 84	85 to 94	85 to 94	95 to 100	0 to 29	0 to 29	pest or weed control at 35 g/ha [1, 3]: 0 to 29%; pest or weed control at 35 g/ha [1, 4]: 0 to 29%; pest or weed control at 35 g/ha [1, 6]: 0 to 29%; pest or weed control at 35 g/ha [1, 7]: 0 to 29%; pest or weed control at 35 g/ha [1, 8]: 0 to 29%; pest or weed control at 35 g/ha [2, 9]: 45 to 59%; pest or weed control at 35 g/ha [2, 10]: 95 to 100%; pest or weed control at 35 g/ha [2, 11]: 60 to 74%; pest or weed control at 35 g/ha [2, 12]: 85 to 94%; pest or weed control at 35 g/ha [2, 13]: 0 to 29%; pest or weed control at 35 g/ha [2, 14]: 0 to 29%; pest or weed control at 70 g/ha [2, 14]: 30 to 44%; pest or weed control at 140 g/ha [2, 14]: 30 to 44%
